Earlier results, collected in US7732483B2, “DNA-PK inhibitors” (Kudos Pharmaceuticals Limited, priority 2004, dated 2010).

Test system: cells
Conditions: Rosenzweig et al. 1999

O=c1cc(N2CCOCC2)oc2c(-c3ccccc3)cccc12 [LY294002]
sensitisation of cells to the effects of IR: weakly sensitise cells to the effects of IR
